One substance from patent publication US8686130B2, “Artificial fluorescent bases” (Riken, priority 2009, dated 2014) can be followed below.

The test system of the data set is mRNA of firefly luciferase. Kind of data set: Suppression of firefly luciferase reporter gene expression by shRNA in HeLa cells (dual luciferase assay). It counts as cell-based. The following applies: different shRNA concentrations, read-out: IC50 for suppressing expression of firefly luciferase gene. The procedure:
In this Example, various shRNAs prepared by T7 transcription and gel purification were introduced into HeLa cells by lipofection together with a plasmid encoding a target reporter gene (firefly luciferase) and a control plasmid endocing a Renilla luciferase gene. Suppression of the target gene expression was investigated based on the luminescence of luciferase. […]
HeLa cells were seeded at 1.5×10^4 cells (100 μL of culture medium)/well in a 96-well plate and were cultured in an MEM medium containing 10% fetal bovine serum but not containing antibiotics for 24 hr. […] After culturing for 22 hr, the intensity of luminescence emitted from each of the two types of luciferase proteins was determined.
The effect of suppressing expression of the firefly luciferase protein, which is the target of shRNA, was analyzed by the intensities of luminescence emitted from the firefly luciferase and Renilla luciferase using dual luciferase reporter assay reagent (Promega Corporation). […] The resulting solution was mixed with 100 μL of LAR II reagent, and the luminescence of the firefly luciferase was detected (exposure time: 120 sec) with LAS 4000 (Fujifilm Corporation), then, 100 μL of Stop & Glo reagent was added thereto, and the luminescence of the Renilla luciferase was detected (exposure time: 200 sec). […]

By IC50 is commonly meant the concentration needed to halve the response being measured. Regarding “shRNAF1 WT: 52-mer short hairpin RNA (SEQ ID NO: 10) targeting mRNA of firefly luciferase, A36 unsubstituted (GGAGCCUUCAGGAUUACAAGAUUCAAGAGUCUUGUAAUCCUGAAGGCUCCUU; short hairpin RNA, synthesis route not given here, further chemistry not given here)”, the half-maximal inhibitory concentration (IC50) is about 0.02 nM.
